Some test systems named below: A549; ACHN; BT-549; COLO 205; HCT-116; HOP-62; HOP-92; IGROV-1; KM12; M14; MCF7; MOLT-4; SK-OV-3; SN12C; SR; SW-620; U-251; UACC-257; UO-31; T47D.
Common to all, as to assay: DTP human tumour cell line panel, 48 h

Structures are written as SMILES.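 Growth conditions: 96-well plates. Treatment: test compound, 48 hours, 5 concentrations. Analysis: linear interpolation between bracketing concentrations; unreached endpoints set to highest concentration. GI50 = concentration required for 50% inhibition of growth.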 Activity calls are given as the source filed them. No stated cut-off is given here; in the data, active = GI50 up to about 1.1 µM and inactive = higher.

Turning to `C=C1CCCC2[C@](C)(CC3=C(Cl)C(=O)C=C(OC)C3=O)C(C)CC[C@]12C` (some centres not stated), the GI50 – broadly, the concentration giving 50% growth inhibition – in the experiment with A549 is 5.27 µM (inactive); with ACHN, 4.66 µM (inactive); in the experiment on BT-549 it was 5 µM (inactive); with COLO 205, 3.37 µM (inactive); in the experiment on HCT-116, 1.75 µM (inactive); in the experiment with HOP-62 it was 6.55 µM (inactive). Also, the GI50 in the experiment on HOP-92 was 6.12 µM (inactive); with IGROV-1 it was 1.9 µM (inactive); in the experiment on KM12 it was 2.26 µM (inactive); in the experiment with M14, 4.33 µM (inactive); in the experiment on MCF7 it was 1.49 µM (inactive); in the experiment with MOLT-4, 0.745 µM (active). For the same molecule, the GI50 was 20.7 µM (inactive) in the experiment on SK-OV-3; 5.77 µM (inactive) in the experiment on SN12C; 1.47 µM (inactive) with SR; 3.02 µM (inactive) in the experiment with SW-620; 3.44 µM (inactive) in the experiment with U-251; 5.89 µM (inactive) with UACC-257. Also, the GI50 in the experiment on UO-31 is 1.76 µM (inactive).

Regarding `O=C1c2ccccc2-c2c1c(-c1cccc(Br)c1)nc1ccc3ccccc3c21`, the GI50 in the experiment on A549, with ACHN, with BT-549, in the experiment with COLO 205, with HCT-116 and with HOP-62 was > 100 µM (inactive) throughout. For the same molecule, the GI50 with KM12, in the experiment with M14, in the experiment with MCF7, in the experiment with MOLT-4, in the experiment with SK-OV-3 and with SN12C was > 100 µM (inactive) in each case. For the same molecule, the GI50 in the experiment on SW-620, in the experiment on T47D, in the experiment with U-251, in the experiment on UACC-257 and with UO-31 was > 100 µM (inactive) in each case.

For the molecule `Cc1cn(C2CC(/[N+]([O-])=N\Nc3ccc([N+](=O)[O-])cc3)C(CO)O2)c(=O)[nH]c1=O` (configuration not stated), the GI50 with A549, in the experiment with ACHN, in the experiment on BT-549, with COLO 205, in the experiment on HCT-116 and with HOP-62 was > 100 µM (inactive) throughout. The GI50 is > 100 µM (inactive) in the experiment on HOP-92; 22.5 µM (inactive) with IGROV-1; > 100 µM (inactive) in the experiment with KM12; > 100 µM (inactive) in the experiment on M14; 22.2 µM (inactive) in the experiment on MOLT-4; > 100 µM (inactive) in the experiment with SK-OV-3. The GI50 is > 100 µM (inactive) with SN12C; 4.62 µM (inactive) in the experiment with SR; > 100 µM (inactive) in the experiment on SW-620; > 100 µM (inactive) with U-251; > 100 µM (inactive) with UACC-257; > 100 µM (inactive) in the experiment with UO-31.

Regarding `Cc1csc(-n2c(C)nc3cc(Cl)ccc3c2=O)n1`, the GI50 in the experiment on A549 was > 100 µM (inactive); with ACHN, > 100 µM (inactive); in the experiment on BT-549, > 100 µM (inactive); in the experiment on COLO 205 it was 71 µM (inactive); in the experiment with HCT-116 it was > 100 µM (inactive); in the experiment with HOP-62, > 100 µM (inactive). The GI50 in the experiment with HOP-92 was 10.4 µM (inactive); with IGROV-1 it was 33.2 µM (inactive); in the experiment with KM12 it was > 100 µM (inactive); in the experiment on M14 it was > 100 µM (inactive); with MCF7, 31.5 µM (inactive); in the experiment on MOLT-4 it was 46.7 µM (inactive). In addition, the GI50 is > 100 µM (inactive) in the experiment with SK-OV-3; > 100 µM (inactive) in the experiment with SN12C; > 100 µM (inactive) with SR; > 100 µM (inactive) in the experiment with SW-620; > 100 µM (inactive) with U-251; 91.6 µM (inactive) in the experiment with UACC-257. The GI50 in the experiment on UO-31 was 58.2 µM (inactive).

Consider `C/C(=N\NC(=S)N1CCN(C)CC1)c1nc2cccnc2[nH]1`, for which the GI50 is > 100 µM (inactive) with A549; > 100 µM (inactive) with ACHN; 22.4 µM (inactive) in the experiment on BT-549; > 100 µM (inactive) with COLO 205; > 100 µM (inactive) in the experiment with HOP-62; > 100 µM (inactive) in the experiment with HOP-92. Besides, the GI50 was > 100 µM (inactive) in the experiment on IGROV-1; > 100 µM (inactive) in the experiment on KM12; > 100 µM (inactive) in the experiment on M14; 20.4 µM (inactive) in the experiment on MCF7; > 100 µM (inactive) in the experiment on MOLT-4; > 100 µM (inactive) in the experiment on SK-OV-3. Besides, the GI50 is > 100 µM (inactive) in the experiment on SN12C; > 100 µM (inactive) in the experiment on SW-620; 52.1 µM (inactive) in the experiment on T47D; > 100 µM (inactive) with U-251; > 100 µM (inactive) with UACC-257; 32 µM (inactive) in the experiment on UO-31.

In the case of `[O-][S+](c1ccc(Cl)cc1)c1ccccc1C1=NCCN1` (configuration not stated), the GI50 in the experiment with A549, in the experiment on ACHN, in the experiment on BT-549, with COLO 205, with HCT-116 and in the experiment on HOP-62 was > 100 µM (inactive) in each case. Further, the GI50 in the experiment with IGROV-1, in the experiment with KM12, in the experiment with M14, with MCF7, with MOLT-4 and in the experiment with SK-OV-3 was > 100 µM (inactive) each time. For the same molecule, the GI50 in the experiment with SN12C, in the experiment on SW-620, with T47D, with U-251, in the experiment on UACC-257 and with UO-31 was > 100 µM (inactive) in each case.

Turning to `C/C=C1\C(=O)OC2CCN3CCC(COC(=O)C(C)(O)C(C)C1O)C23` (configuration not stated), the GI50 in the experiment on A549, in the experiment on ACHN, in the experiment on BT-549, with COLO 205, in the experiment with HCT-116 and with HOP-92 was > 100 µM (inactive) each time. In addition, the GI50 in the experiment with IGROV-1, in the experiment with KM12, with M14, with MCF7, with MOLT-4 and in the experiment on SK-OV-3 was > 100 µM (inactive) in each case. Also, the GI50 with SN12C, with SW-620, in the experiment on T47D, in the experiment on U-251, with UACC-257 and with UO-31 was > 100 µM (inactive) each time.

Take `COCN1C(=O)[C@@H]2CCCN2C(=O)c2cc(OC)c(Cc3ccccc3)cc21`: the GI50 with A549 is 83.6 µM (inactive); in the experiment on ACHN it was > 100 µM (inactive); with BT-549, 81.8 µM (inactive); in the experiment with HCT-116 it was 62.4 µM (inactive); in the experiment with HOP-62 it was > 100 µM (inactive); with IGROV-1, 62.7 µM (inactive). For the same molecule, the GI50 with KM12 is > 100 µM (inactive); in the experiment on M14, > 100 µM (inactive); with MCF7, 61.5 µM (inactive); in the experiment with SK-OV-3, > 100 µM (inactive); with SN12C, > 100 µM (inactive); in the experiment on SW-620 it was > 100 µM (inactive). Also, the GI50 was 43.3 µM (inactive) with T47D, 94.6 µM (inactive) in the experiment on U-251, > 100 µM (inactive) in the experiment with UACC-257 and 57 µM (inactive) in the experiment on UO-31.

In the case of `CS(=O)(=O)c1nc(-c2cc3c(c(S(C)(=O)=O)n2)CCCC3)cc2c1CCCCC2`, the GI50 was > 100 µM (inactive) with A549; > 100 µM (inactive) in the experiment with ACHN; > 100 µM (inactive) in the experiment with BT-549; > 100 µM (inactive) with COLO 205; > 100 µM (inactive) in the experiment on HCT-116; 31.6 µM (inactive) with HOP-62. In addition, the GI50 was 11.2 µM (inactive) in the experiment on IGROV-1; > 100 µM (inactive) in the experiment on KM12; > 100 µM (inactive) in the experiment on M14; 72.4 µM (inactive) in the experiment on SK-OV-3; > 100 µM (inactive) in the experiment with SN12C; > 100 µM (inactive) in the experiment with SW-620. Besides, the figures for the GI50 with U-251, in the experiment on UACC-257 and in the experiment on UO-31 were > 100 µM (inactive), > 100 µM (inactive) and 0.0206 µM (active), respectively.

On to `c1ccc(CCNc2ccccn2)nc1`, for which the GI50 in the experiment on A549, in the experiment on ACHN, with BT-549, in the experiment with COLO 205, in the experiment on HCT-116 and in the experiment on HOP-62 was > 100 µM (inactive) throughout. Moreover, the GI50 with HOP-92, in the experiment with IGROV-1, in the experiment on KM12, with M14, with MCF7 and in the experiment with SK-OV-3 was > 100 µM (inactive) each time. Besides, the GI50 with SN12C, with SW-620, in the experiment with U-251, in the experiment on UACC-257 and in the experiment on UO-31 was > 100 µM (inactive) each time.

For the molecule `COc1ccc(-c2nc(SCC(=O)N/N=C/c3ccc(O)c(OC)c3)[nH]c2-c2ccc(OC)cc2)cc1`, the GI50 with A549 was 34.9 µM (inactive); in the experiment on ACHN, 18.2 µM (inactive); with BT-549, 22.1 µM (inactive); in the experiment with COLO 205, 19.8 µM (inactive); in the experiment on HCT-116, 17.9 µM (inactive); in the experiment on HOP-62, 24.6 µM (inactive). Further, the GI50 in the experiment on HOP-92 is 23.7 µM (inactive); with KM12, 33.3 µM (inactive); in the experiment on M14 it was 22.9 µM (inactive); in the experiment with MCF7, 17.9 µM (inactive); with SK-OV-3, 29.4 µM (inactive); in the experiment with SN12C, 19.1 µM (inactive). Also, the GI50 in the experiment with SW-620 is 30.8 µM (inactive); in the experiment with T47D it was 22.7 µM (inactive); with U-251, 19.7 µM (inactive); with UACC-257, 25.5 µM (inactive); in the experiment with UO-31 it was 34.7 µM (inactive).

The values above are taken from ChEMBL document CHEMBL1201862, “PubChem BioAssay data set” (2004).
